Reference: patent US9365541B2, “Compounds for use in the treatment of parasitic diseases” (IRBM—SCIENCE PARK S.P.A., priority 2012, dated 2016)

Assays:
[1] = system: Plasmodium falciparum 3D7; assay: P. falciparum growth inhibition assay (Pf-LDH); assay type: cell-based; conditions: Plasmodium falciparum, Erythrocyte; P. falciparum 3D7 infected erythrocytes, 72 h incubation, PfLDH readout
Procedure, shortened: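 Compounds were tested against 72 h cultures of the 3D7 strain (0.25% parasitemia, 2% hematocrit, 37° C, low-oxygen gas). Parasite growth was quantified as lactate dehydrogenase activity via NBT reduction, absorbance 650 nm, after freezing and thawing.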

[2] = molecular target: T1, human HDAC1 (Homo sapiens, UniProt Q13547); assay: Homo sapiens HDAC1 inhibition assay (Fluor-de-Lys, enzymatic); assay type: biochemical; conditions: human HDAC enzymatic assay; read-out: hHDAC IC50
T1 construct: made in house; host or cells: HeLa (ATCC CCL-2), mammalian cells
Procedure, shortened: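 Fluorogenic deacetylation read-out: trypsin developer, supplemented with 2 μM final TSA as stop, releases fluorophore from deacetylated substrate.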

T1 sequence (Q13547 whole entry): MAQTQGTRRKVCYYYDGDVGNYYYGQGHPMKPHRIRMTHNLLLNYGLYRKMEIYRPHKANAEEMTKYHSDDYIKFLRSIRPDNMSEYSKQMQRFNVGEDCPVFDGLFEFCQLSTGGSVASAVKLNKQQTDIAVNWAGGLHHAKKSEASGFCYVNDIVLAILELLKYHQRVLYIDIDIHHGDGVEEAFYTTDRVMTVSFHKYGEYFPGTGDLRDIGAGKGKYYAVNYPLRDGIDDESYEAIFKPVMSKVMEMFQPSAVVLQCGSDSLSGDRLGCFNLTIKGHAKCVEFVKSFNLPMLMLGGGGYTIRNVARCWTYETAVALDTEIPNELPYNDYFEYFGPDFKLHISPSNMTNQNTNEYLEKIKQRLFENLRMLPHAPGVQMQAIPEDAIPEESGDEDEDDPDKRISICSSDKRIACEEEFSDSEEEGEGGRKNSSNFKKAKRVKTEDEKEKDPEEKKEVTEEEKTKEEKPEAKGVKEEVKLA

EC50 [1] [nM]	IC50 [2] [nM]	SMILES
< 1000	1000 to 5000	CNC(=O)CCCCC[C@H](NC(=O)c1cnc(CN2CCCC2)s1)c1ncc(-c2ccc(-c3ccn(C)n3)cc2)[nH]1 [Entry 124, (S)-N-(1-(5-(4-(1-methyl-1H-pyrazol-3-yl)phenyl)-1H-imidazol-2-yl)-7-(methylamino)-7-oxoheptyl)-2-(pyrrolidin-1-ylmethyl)thiazole-5-carboxamide]
> 5000	> 5000	CNC(=O)CCCCC[C@H](NC(=O)c1cncs1)c1ncc(-c2ccn3ncnc3c2)[nH]1 [Entry 125, (S)-N-(1-(5-([1,2,4]triazolo[1,5-a]pyridin-7-yl)-1H-imidazol-2-yl)-7-(methylamino)-7-oxoheptyl)thiazole-5-carboxamide]
< 1000	1000 to 5000	CNC(=O)CCCCC[C@H](NC(=O)c1cncs1)c1ncc(-c2ccc3ncccc3c2)[nH]1 [Entry 127, (S)-N-(7-(methylamino)-7-oxo-1-(5-(quinolin-6-yl)-1H-imidazol-2-yl)heptyl)thiazole-5-carboxamide]
1000 to 5000	> 5000	CNC(=O)CCCCC[C@H](NC(=O)c1cncs1)c1ncc(-c2ccc3ccccc3n2)[nH]1 [Entry 128, (S)-N-(7-(methylamino)-7-oxo-1-(5-(quinolin-2-yl)-1H-imidazol-2-yl)heptyl)thiazole-5-carboxamide]
> 5000	> 5000	CNC(=O)CCCCC[C@H](NC(=O)c1cncs1)c1ncc(-c2ccc(Cl)c(Cl)c2)[nH]1 [Entry 129, (S)-N-(1-(5-(3,4-dichlorophenyl)-1H-imidazol-2-yl)-7-(methylamino)-7-oxoheptyl)thiazole-5-carboxamide]
1000 to 5000	> 5000	CNC(=O)CCCCC[C@H](NC(=O)CCN1CCOCC1)c1ncc(-c2cc3ccccc3nc2OC)[nH]1 [Entry 130]
1000 to 5000	< 1000	CNC(=O)CCCCC[C@H](NC(=O)CCN1CCN(C)CC1)c1ncc(-c2cc3ccccc3nc2OC)[nH]1 [Entry 131]
< 1000	< 1000	CNC(=O)CCCCC[C@H](NC(=O)c1cncs1)c1ncc(-c2ccc3c(ccn3C)c2)[nH]1 [Entry 132, (S)-N-(1-(5-(1-methyl-1H-indol-5-yl)-1H-imidazol-2-yl)-7-(methylamino)-7-oxoheptyl)thiazole-5-carboxamide]
1000 to 5000	1000 to 5000	CNC(=O)CCCCC[C@H](NC(=O)C1(C)CCOCC1)c1ncc(-c2cc3ccccc3nc2OC)[nH]1 [Entry 133, (S)-N-(1-(5-(2-methoxyquinolin-3-yl)-1H-imidazol-2-yl)-7-(methylamino)-7-oxoheptyl)-4-methyltetrahydro-2H-pyran-4-carboxamide]
1000 to 5000	> 5000	CNC(=O)CCCCC[C@H](NC(=O)CCc1cnn(C)c1)c1ncc(-c2cc3ccccc3nc2OC)[nH]1 [Entry 134]
1000 to 5000	> 5000	CNC(=O)CCCCC[C@H](NC(=O)c1ccn(C)n1)c1ncc(-c2cc3ccccc3nc2OC)[nH]1 [Entry 135, (S)-N-(1-(5-(2-methoxyquinolin-3-yl)-1H-imidazol-2-yl)-7-(methylamino)-7-oxoheptyl)-1-methyl-1H-pyrazole-3-carboxamide]
> 5000	> 5000	CNC(=O)CCCCC[C@H](NC(=O)c1cncs1)c1ncc(-c2ccc3occc3c2)[nH]1 [Entry 136, (S)-N-(1-(5-(benzofuran-5-yl)-1H-imidazol-2-yl)-7-(methylamino)-7-oxoheptyl)thiazole-5-carboxamide]
> 5000	> 5000	CNC(=O)CCCCC[C@H](NC(=O)c1cncs1)c1ncc(-c2ccc3ccccc3c2F)[nH]1 [Entry 137, (S)-N-(1-(5-(1-fluoronaphthalen-2-yl)-1H-imidazol-2-yl)-7-(methylamino)-7-oxoheptyl)thiazole-5-carboxamide]
< 1000	1000 to 5000	CNC(=O)CCCCC[C@H](NC(=O)c1cncs1)c1ncc(-c2ccc3cnccc3c2)[nH]1 [Entry 138, (S)-N-(1-(5-(isoquinolin-6-yl)-1H-imidazol-2-yl)-7-(methylamino)-7-oxoheptyl)thiazole-5-carboxamide]
1000 to 5000	1000 to 5000	CNC(=O)CCCCC[C@H](NC(=O)c1cncs1)c1ncc(-c2ccc(-c3ccccn3)cc2)[nH]1 [Entry 139, (S)-N-(7-(methylamino)-7-oxo-1-(5-(4-(pyridin-2-yl)phenyl)-1H-imidazol-2-yl)heptyl)thiazole-5-carboxamide]
1000 to 5000	1000 to 5000	CNC(=O)CCCCC[C@H](NC(=O)c1cncs1)c1ncc(-c2cc3ccccc3n(C)c2=O)[nH]1 [Entry 140, (S)-N-(1-(5-(1-methyl-2-oxo-1,2-dihydroquinolin-3-yl)-1H-imidazol-2-yl)-7-(methylamino)-7-oxoheptyl)thiazole-5-carboxamide]
1000 to 5000	1000 to 5000	CNC(=O)CCCCC[C@H](NC(=O)c1cnc(CN2CCCC2)s1)c1ncc(-c2ccc(-n3cccn3)cc2)[nH]1 [Entry 141, (S)-N-(1-(5-(4-(1H-pyrazol-1-yl)phenyl)-1H-imidazol-2-yl)-7-(methylamino)-7-oxoheptyl)-2-(pyrrolidin-1-ylmethyl)thiazole-5-carboxamide]
1000 to 5000	1000 to 5000	CNC(=O)CCCCC[C@H](NC(=O)CCc1nc2ccccc2s1)c1ncc(-c2ccc(-n3cccn3)cc2)[nH]1 [Entry 142, (S)-7-(5-(4-(1H-pyrazol-1-yl)phenyl)-1H-imidazol-2-yl)-7-(3-(benzo[d]thiazol-2-yl)propanamido)-N-methylheptanamide]
< 1000	< 1000	CNC(=O)CCCCC[C@H](NC(=O)c1cncs1)c1ncc(-c2ccc3ccncc3c2)[nH]1 [Entry 143, (S)-N-(1-(5-(isoquinolin-7-yl)-1H-imidazol-2-yl)-7-(methylamino)-7-oxoheptyl)thiazole-5-carboxamide]
> 5000	> 5000	CNC(=O)CCCCC[C@H](NC(=O)c1cn2ccccc2n1)c1ncc(-c2ccc3ccccc3c2)[nH]1 [Entry 144, (S)-N-(7-(methylamino)-1-(5-(naphthalen-2-yl)-1H-imidazol-2-yl)-7-oxo-heptyl)imidazo[1,2-a]pyridine-2-carboxamide]
1000 to 5000	1000 to 5000	CNC(=O)CCCCC[C@H](NC(=O)C1CCC1(F)F)c1ncc(-c2ccc3ccncc3c2)[nH]1 (stereo partly drawn) [Entry 145, 2,2-difluoro-N-((S)-1-(5-(isoquinolin-7-yl)-1H-imidazol-2-yl)-7-(methylamino)-7-oxo-heptyl)cyclobutane-carboxamide]
1000 to 5000	1000 to 5000	CNC(=O)CCCCC[C@H](NC(=O)Cc1csc2nccn12)c1ncc(-c2ccc(-c3ccn(C)n3)cc2)[nH]1 [Entry 146, (S)-7-(2-(imidazo[2,1-b]thiazol-3-yl)acetamido)-N-methyl-7-(5-(4-(1-methyl-1H-pyrazol-3-yl)phenyl)-1H-imidazol-2-yl)heptanamide]
1000 to 5000	1000 to 5000	CNC(=O)CCCCC[C@H](NC(=O)c1cncs1)c1ncc(-c2cccc3ccoc23)[nH]1 [Entry 147, (S)-N-(1-(5-(benzofuran-7-yl)-1H-imidazol-2-yl)-7-(methylamino)-7-oxoheptyl)thiazole-5-carboxamide]
< 1000	< 1000	CNC(=O)CCCCC[C@H](NC(=O)Cc1c(C)[nH]c2ccc(OC)cc12)c1nnc(-c2ccc3ccccc3c2)[nH]1 [Entry 148, (S)-7-(2-(5-methoxy-2-methyl-1H-indol-3-yl)acetamido)-N-methyl-7-(5-(naphthalen-2-yl)-4H-1,2,4-triazol-3-yl)heptanamide]
< 1000	< 1000	CCc1nc2ccccc2n1CCC(=O)N[C@@H](CCCCCC(=O)NC)c1ncc(-c2ccc3ccccc3c2)[nH]1 [Entry 150, (S)-7-(3-(2-ethyl-1H-benzo[d]imidazol-1-yl)propanamido)-N-methyl-7-(5-(naphthalen-2-yl)-1H-imidazol-2-yl)heptanamide]
1000 to 5000	< 1000	CNC(=O)CCCCC[C@H](NC(=O)Cn1c(=O)ncc2ccccc21)c1ncc(-c2ccc3ccccc3c2)[nH]1 [Entry 151]
1000 to 5000	1000 to 5000	CNC(=O)CCCCC[C@H](NC(=O)CC1=CSC2=NCCCN12)c1ncc(-c2ccc3ccncc3c2)[nH]1 [Entry 155, (S)-7-(2-(6,7-dihydro-5H-thiazolo[3,2-a]pyrimidin-3-yl)acetamido)-7-(5-(isoquinolin-7-yl)-1H-imidazol-2-yl)-N-methyl-heptanamide]
1000 to 5000	> 5000	CNC(=O)CCCCC[C@H](NC(=O)c1cccc(-n2cccn2)c1)c1ncc(-c2cc3ccccc3nc2OC)[nH]1 [Entry 156, (S)-N-(1-(5-(2-methoxyquinolin-3-yl)-1H-imidazol-2-yl)-7-(methylamino)-7-oxoheptyl)-3-(1H-pyrazol-1-yl)benzamide]

SMILES	EC50 [1] [nM]	IC50 [2] [nM]
CNC(=O)CCCCC[C@H](NC(=O)C12CCN(CC1)CC2)c1ncc(-c2ccc3ncccc3c2)[nH]1 [Entry 152]	1000 to 5000	< 1000
CNC(=O)CCCCC[C@H](NC(=O)C12CCN(CC1)CC2)c1ncc(-c2ccc3cc(OC)ccc3c2)[nH]1 [Entry 153, (S)-N-(1-(5-(6-methoxynaphthalen-2-yl)-1H-imidazol-2-yl)-7-(methylamino)-7-oxo-heptyl)quinuclidine-4-carboxamide]	< 1000	< 1000
CNC(=O)CCCCC[C@H](NC(=O)C12CCN(CC1)CC2)c1ncc(-c2ccc3cc(F)ccc3c2)[nH]1 [Entry 154, (S)-N-(1-(5-(6-fluoronaphthalen-2-yl)-1H-imidazol-2-yl)-7-(methylamino)-7-oxo-heptyl)quinuclidine-4-carboxamide]	< 1000	< 1000
